Source: patent US20250161312A1, “A METHOD FOR THE TREATMENT OF CHEMOTHERAPEUTIC DRUG-INDUCED NEPHROTOXICITY” (INSTITUT NATIONAL DE LA SANTÉ ET DE LA RECHERCHE MÉDICALE, priority 2022, published 2025)

Legend:
RPTEC/hTERT1 cells [1] = experiment: Cell efflux (EFLUXX-ID) in RPTEC/hTERT1 cells; assay type: cell-based, human; settings: cisplatin-treated cells, flow cytometry, FIG. 4C
Experimental: FIG. 4. […] (A) Platinum quantification (n=12-20/group) and relative expression of influx transporters (CTR1 and OCT2) and efflux transporters (ATP7B, MATE1, MATE2 and ABCC2; n=10-12/group) in kidney. (B) Platinum quantification (n=12-20/group) and relative expression of influx transporters (CTR1) and efflux transporters (ATP7B, MATE1, and ABCC2; n=5-6/group) in tumors. […] Results are the mean±SEM (n=3 independent experiments)
The basic cell efflux function was assessed using an EFLUXX-ID Green Multidrug Resistance Assay Kit (ENZO Life Sciences). Briefly, 2.5×10^5 cells/condition were collected, washed with PBS, and incubated with the EFLUXX-ID Green Detection Reagent for 30 minutes at 37° C., and then efflux was measured immediately by flow cytometry (CytoFLEX LX, Beckman Coulter). All experiments were performed in triplicate, with the measurement of 10,000 individual cells. Data were analyzed using Kaluza Analysis Software (Beckman Coulter).

H1975 cells = experiment: γH2AX nuclear foci in H1975 cells; assay type: cell-based; settings: 50 μM cisplatin, 10 nM KW6002, 6 hours, FIG. 7F
Experimental: FIG. 7. […] Caspase 3/-7 activity (n=3 independent experiments) (A) and the number of γH2AX nuclear foci (n=36-63 nuclei/group) (B) were determined. […] Results are expressed as the mean±SEM (n=3 independent experiments). (E) Tail moment was assessed by comet assay. A total of 50 cells per condition were analyzed. *** P<0.001; 1-way ANOVA followed by Tukey's post hoc test. […] (I) KW6002 increased yH2AX expression in tumors from mice of the LLC1 syngeneic model. Quantification of nuclear yH2AX expression.

RPTEC/hTERT1 cells [2] = experiment: Comet assay in RPTEC/hTERT1 cells; assay type: cell-based, human; settings: FIG. 6A
Experimental: FIG. 6. KW6002 alleviates the cisplatin-induced nephrotoxicity associated with apoptosis, lipid metabolism, and oxidative stress. (A) Tail moment assessed by comet assay; 50 cells/condition were analyzed. (B and C) KW6002 attenuates cisplatin-induced renal lipid accumulation, assessed by Red Oil staining. […] Results are the mean±SEM (n=6-9 mice/group). (F-H) KW6002 attenuated cisplatin-induced oxidative stress in RPTEC/hTERT1 cells. (F and G) Gene expression of Nrf2 (F) and HO1 (G). […] Results are the mean±SEM (n=3 independent experiments).
Treated cells were suspended (60,000 cells/mL) in low-melt agarose (1613111, Bio-Rad) 0.5% in PBS at 42° C. The suspension was then immediately spread on a comet slide (4250-200-03, R&D Systems). Agarose was allowed to cool down for 20 minutes at 4° C. Then, cell membranes were permeabilized with a lysis solution (2.5M NaCl, 100 mM EDTA, 10 mM Tris-HCl, 1% Triton X-100 [pH 10]) at 4° C. for 1 hour. […] The images were analyzed using an ImageJ in-home macro, in which the head (the nucleus) and tail (the DNA that migrated) of the comet were delimited to get the fluorescence intensity of the head, the fluorescence intensity of the tail, and the length of the tail. The calculation of tail moments was done using the following formula: (length of the comet tail×fluorescence intensity of the tail)/total fluorescence intensity (head+tail).

[3] = test system: mEERL tumors in C57B16/J mice; experiment: mEERL in vivo tumor model (HPV+ squamous carcinoma)
Experimental: FIG. 8. […] The arrow represents cisplatin and/or PBS injection. […] (E) Absolute tumor sizes in animals in the different groups.
We used a validated murine model of HPV+ oropharyngeal squamous cell carcinoma as previously described (noncommercial) (77). This model consists of oropharyngeal epithelial cells from C57Bl/6 male mice that stably express the HPV16 viral oncogenes E6 and E7, H-Ras, and luciferase (mEERL cells). mEERL cells were grown in a T75 flask until confluent, after which cells were trypsinized and harvested, washed 3 times with sterile PBS, and resuspended in 1 mL sterile PBS to the appropriate concentration. Mice were injected s.c. into the right flank with 20 μL solution containing either 1,000,000 mEERL cells or PBS (vehicle). The day of mEERL cell injection is indicated as day −14. Tumor volume was monitored using Vernier digital calipers.

RPTEC/hTERT cells = experiment: Caspase 3/7 activity in RPTEC cells; assay type: cell-based, human; settings: cisplatin 50 μM, 48 hours
Experimental: Cells were cultured in DMEM/F12 medium (Dulbecco's modified Eagle's medium and Ham's F12 medium, Thermo Fisher) supplemented with 1% penicillin/streptomycin, 5 pmol/L triiodo-L-thyronine, 10 ng/ml recombinant human epidermal growth factor, 3.5 μg/mL ascorbic acid, 5.0 μg/mL human transferrin, 5.0 μg/mL insulin, 25 ng/mL prostaglandin E1, 25 ng/ml hydrocortisone, 8.65 ng/mL sodium selenite, 0.1 mg/mL G418 and 1.2 g/L sodium bicarbonate (Sigma). Lewis lung carcinoma mouse LLC1 cells were cultured in DMEM glutamax (Thermo Fisher) containing 10% fetal calf serum and 1% penicillin/streptomycin. Cells were cultured at 37° C. in a humidified atmosphere of 5% CO2.
Apoptosis was assessed in RPTEC/hTERT and LLC1 cell lysates using the caspase-Glo 3/7 assay (Promega) according to manufacturer's recommendations.

**Q.** Which efflux (RPTEC/hTERT1 cells [1]) does the source give for `CCn1c(=O)c2c(nc(/C=C/c3ccc(OC)c(OC)c3)n2C)n(CC)c1=O` [KW-6002, 8-[(E)-2-(3,4-dimethoxyphenyl)vinyl]-1,3-diethyl-7-methyl-3,7-dihydro-1H-purine-2,6-dione] here?
**A.** The efflux was “strongly enhanced”.

**Q.** And the “DNA damage: yH2AX nuclear foci” value (H1975 cells)?
**A.** Its value is “increased number of H2AX+ cells”.

**Q.** What about the “cisplatin-induced DNA damage (tail moment)” value (RPTEC/hTERT1 cells [2]) of the same compound?
**A.** The value was “inhibiting”.

**Q.** What about the “cisplatin-induced pain hypersensitivity (von Frey)” value ([3]; FIG. 8D) of the same compound?
**A.** The value was “alleviated cisplatin-induced pain hypersensitivity”.

**Q.** And the “tumor control by cisplatin (tumor size)” value ([3]; FIG. 8E)?
**A.** Its value is “significantly potentiated tumor control by cisplatin”.

**Q.** What about the “indicators of renal toxicity (KIM-1) induced by cisplatin” value ([3]; tumor-bearing mice, FIG. 8A) of the same compound?
**A.** Its value is “limited”.

**Q.** What about the “expression of Tnf induced by cisplatin” value ([3]; tumor-bearing mice, FIG. 8B) of the same compound?
**A.** The value was “limited”.

**Q.** And the “expression of I16 induced by cisplatin” value ([3]; tumor-bearing mice, FIG. 8C)?
**A.** Its value is “limited”.

**Q.** What about the cisplatin-induced apoptosis (RPTEC/hTERT cells) of the same compound?
**A.** Its cisplatin-induced apoptosis is “inhibited cisplatin-induced apoptosis”.

**Q.** And the cisplatin-induced apoptosis (RPTEC/hTERT cells; listed as KW6002)?
**A.** Its cisplatin-induced apoptosis is “inhibiting cisplatin-induced apoptosis”.
